We go through seven compounds from ChEMBL document CHEMBL4184099, “Fragment-based discovery of a potent NAMPT inhibitor” (Bioorg Med Chem Lett, 2018).

For assay [1], the target named is T1, Nicotinamide phosphoribosyltransferase (Homo sapiens, UniProt P43490). Description: Inhibition of human full length C-terminal flag/His-tagged NAMPT (1 to 491 residues) expressed in HEK293-6E cells by TR-FRET assay.
Target sequence in this assay (P43490 whole entry, the tested form may be a part): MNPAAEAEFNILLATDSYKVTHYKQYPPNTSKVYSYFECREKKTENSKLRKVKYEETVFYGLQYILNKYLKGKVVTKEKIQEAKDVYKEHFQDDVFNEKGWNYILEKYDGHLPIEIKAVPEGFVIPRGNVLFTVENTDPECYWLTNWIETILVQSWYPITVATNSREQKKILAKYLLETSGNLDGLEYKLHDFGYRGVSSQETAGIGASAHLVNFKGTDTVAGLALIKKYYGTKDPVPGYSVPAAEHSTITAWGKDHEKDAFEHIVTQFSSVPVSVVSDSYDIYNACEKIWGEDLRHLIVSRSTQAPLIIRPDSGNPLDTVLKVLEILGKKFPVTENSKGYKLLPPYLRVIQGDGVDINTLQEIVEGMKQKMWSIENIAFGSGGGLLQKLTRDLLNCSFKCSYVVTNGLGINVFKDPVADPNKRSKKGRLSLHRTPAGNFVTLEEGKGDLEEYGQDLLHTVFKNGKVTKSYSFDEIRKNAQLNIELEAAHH
The target in assay [2] is T1, Nicotinamide phosphoribosyltransferase. Description: Inhibition of NAM binding to human full length C-terminal flag/His-tagged NAMPT (1 to 491 residues) at 400 uM by STD-NMR spectroscopic analysis relative to control.
Target sequence in this assay (P43490 whole entry, looked up, the tested form may be a part): as the sequence (P43490 whole entry, the tested form may be a part) above

Each structure is given as a SMILES string.

A word on the IC50: it is the concentration needed to halve the response being measured. Low readings indicate inhibition by little substance, high ones a need for much substance. In general, inhibition refers to the share of the control response that was lost under treatment. A higher inhibition goes with strong suppression. `CCCc1cc(=O)[nH]c(Nc2ccccc2F)n1` registered a 50% inhibitory concentration (IC50) in assay [1] of 360 µM. This compound also returned an inhibition in assay [2] of 80%.
Take `O=C1OCCC/C1=C\Nc1ccccc1`: in assay [1], the IC50 was 10 µM.
Same read-out and setting: the result for `O=C(Cc1ccccc1)Nc1ccc2nc[nH]c2c1` reads 90 µM.
As for `O=C1C2CCC2C(=O)N1CCc1ccccn1` (stereo unspecified), in assay [1], the IC50 is more than 1000 µM. This compound also gave an inhibition in assay [2] of 80%.
For `Cc1ccc(Cn2nnc3cc(C(N)=O)ccc32)cc1` the same measures were 8 µM and 80%.
For `O=C(NCc1ccncc1)Nc1ccc(F)c(F)c1` the same measures were 850 µM and 80%.
`CC(C)CCNC(=O)c1ccc(NC(=O)Nc2ccc3nc[nH]c3c2)cc1` came in with an IC50 in assay [1] of 0.08 µM.
